Assays:
JAK3 enzyme [1] = biological target: T1, JAK3 enzyme (Homo sapiens, UniProt P52333); experiment: JAK Caliper Enzyme Assay at 1 mM ATP; type: biochemical
T1 sequence (P52333 1-1124): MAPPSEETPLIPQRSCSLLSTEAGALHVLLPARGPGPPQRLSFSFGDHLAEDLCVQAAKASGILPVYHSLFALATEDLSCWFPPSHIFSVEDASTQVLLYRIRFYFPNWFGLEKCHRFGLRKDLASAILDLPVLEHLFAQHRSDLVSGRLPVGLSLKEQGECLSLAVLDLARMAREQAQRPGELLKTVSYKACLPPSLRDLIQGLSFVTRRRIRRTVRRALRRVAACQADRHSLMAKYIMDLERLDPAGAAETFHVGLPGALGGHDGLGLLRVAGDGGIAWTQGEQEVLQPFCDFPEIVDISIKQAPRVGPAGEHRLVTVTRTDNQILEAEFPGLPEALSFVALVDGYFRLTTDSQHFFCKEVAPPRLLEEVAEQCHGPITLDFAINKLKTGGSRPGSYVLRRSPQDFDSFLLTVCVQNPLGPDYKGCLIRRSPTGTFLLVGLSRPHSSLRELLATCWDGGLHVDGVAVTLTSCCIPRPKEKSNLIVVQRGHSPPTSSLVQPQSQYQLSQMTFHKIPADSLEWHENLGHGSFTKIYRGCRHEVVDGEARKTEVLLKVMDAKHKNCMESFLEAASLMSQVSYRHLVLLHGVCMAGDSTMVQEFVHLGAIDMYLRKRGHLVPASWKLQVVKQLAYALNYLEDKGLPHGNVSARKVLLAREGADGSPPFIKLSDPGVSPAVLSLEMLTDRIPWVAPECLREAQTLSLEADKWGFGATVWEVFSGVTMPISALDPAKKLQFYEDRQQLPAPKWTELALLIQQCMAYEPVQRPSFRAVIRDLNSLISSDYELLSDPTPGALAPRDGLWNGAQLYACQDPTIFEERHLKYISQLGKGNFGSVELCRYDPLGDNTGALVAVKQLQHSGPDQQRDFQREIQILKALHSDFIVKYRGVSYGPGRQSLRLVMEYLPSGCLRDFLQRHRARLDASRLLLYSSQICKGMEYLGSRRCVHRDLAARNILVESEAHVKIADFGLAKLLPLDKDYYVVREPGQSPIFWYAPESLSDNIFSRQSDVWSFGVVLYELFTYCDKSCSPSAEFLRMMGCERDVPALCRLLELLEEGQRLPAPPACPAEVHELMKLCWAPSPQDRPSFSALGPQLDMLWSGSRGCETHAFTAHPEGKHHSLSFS
Summary of the method: (§1)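 11-pt ½-log cpd titration in DMSO (top 600 μM, pre-assay); enzyme conc/incubation adjusted per prep → 20-30% peptide phosphorylation; phospho vs non-phospho peptide read by chip-based electrophoretic separation.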

JAK3 enzyme [2] = biological target: T1, JAK3 enzyme; experiment: JAK Caliper Enzyme Assay at 4 μM ATP; type: biochemical
Summary of the method: as §1

[3] = system: IL-15 induced P-STAT5 in human PBMC; experiment: PBMC IL-15 Induced P-STAT5; type: cell-based; conditions: human PBMC, IL-15 final 41 ng/mL; read-out: PBMC IL15_pSTAT5_IC50
Experimental: PBMC IL-15 Induced P-STAT5
Test compounds were serially diluted in DMSO, with further dilution of the compounds in RPMI 1640 medium (Invitrogen #72400) supplemented with 10 mM HEPES, pH 7.4, 1 mM sodium pyruvate, and Penicillin/Streptomycin (by adding 5 μL compound/DMSO in 120 μL Dulbecco's Phosphate-Buffered Saline (D-PBS, 1×), [DMSO]=4%, and mixing the solution by repeated pipetting, 6×). IL-15 was diluted to the concentration at 820 ng/mL in RPMI 1640 medium.
Frozen human PBMC (200-250 million cells/vial) was thawed at 37° C. The cells were transferred to 10 mL warm medium in a 50-mL conical tube, and centrifuged at 1,200 RPM at room temperature for 5 min. The supernatant was aspirated. Cells were suspended in 3 mL warm human plasma and incubated at 37° C. in a tissue culture incubator for 1.5 to 2 h. After adding 47 ml D-PBS (37° C.) to PBMC/FBS suspension, centrifuging at 1,200 RPM at room temperature for 5 min, and aspirating the supernatant, the cells were resuspended in 20 mL warm RPMI medium. Ninety μL of cell suspension were pipetted per well in a 96-well, deep-well, V-bottom plate, and the plate was incubated at 37° C. for 30 min. Five μL of compound were transferred to each well (final 0.2% DMSO), vortex gently and incubate at 37° C. for 15 min; 5 μL 4% DMSO/PBS were added to the control wells. After adding 5 μL 820 ng/mL of human IL-15 (final 41 ng/mL) to each well (5 μL PBS to the control wells), vortexing gently and incubating at 37° C. for 15 min, followed by 0.3 mL 1% paraformaldehyde/PBS (37° C.) to each well, and incubating the plate at room temperature for 15 min, the plates were centrifuged at 1,200 RPM (Beckman GS-6R or Sorvall Legend) at room temperature for 5 min, and the supernatant was aspirated using a 8-channel or 12-channel manifold. After adding 0.8 mL staining buffer per well, the plates were centrifuged at 1,200 RPM (Beckman GS-6R or Sorvall Legend) at room temperature for 5 min, and again the supernatant was aspirated using a 8-channel or 12-channel manifold. The plate was vortexed, and 0.35 mL 90% methanol/10% H2O (−20° C.) was added per well, and the plate incubated on ice for 20 min. After again adding 0.8 mL staining buffer per well, the plates were centrifuged at 1,200 RPM (Beckman GS-6R or Sorvall Legend) at room temperature for 5 min, and again the supernatant was aspirated using a 8-channel or 12-channel manifold, and then 0.8 mL Staining buffer was added per well. After once again adding 0.8 mL staining buffer per well, the plates were centrifuged at 1,200 RPM (Beckman GS-6R or Sorvall Legend) at room temperature for 5 min, and again the supernatant was aspirated using a 8-channel or 12-channel manifold. Then the plate was vortexed, and 250 μL/well of Alexa Fluor® 647 conjugated anti-STAT5 antibody ([…]; […]) was added, and the plate was incubated at 4° C. overnight in the dark. Samples of 250 μL/well were transferred to a 96-well U-bottom plate, and the FACS analysis was performed gating on total lymphocytes. Samples were analyzed using a BD Calibur™ or BD FACSCanto™ flow cytometer equipped with the BD High Throughput Sampler.

SMILES	IC50 (JAK3 enzyme [1])	IC50 (JAK3 enzyme [2])	IC50 [3]
C=CC(=O)N1CC[C@@H](Nc2cnc3[nH]cc(C(=O)NCC)c3n2)[C@H](OC)C1 (racemic) [Example 25, Trans-racemic-2-{[1-acryloyl-3-methoxypiperidin-4-yl]amino}-N-ethyl-5H-pyrrolo[2,3-b]pyrazine-7-carboxamide]	92 nM	1.33 nM	1600 nM
C=CC(=O)N1CC[C@@H](Oc2cnc3[nH]cc(C(=O)NCC)c3n2)[C@H](C)C1 (racemic) [Example 46, Trans-racemic-2-{[1-acryloyl-3-methylpiperidin-4-yl]oxy}-N-ethyl-5H-pyrrolo[2,3-b]pyrazine-7-carboxamide]	209 nM	3.38 nM	871 nM
C=CC(=O)N1C[C@@H](Nc2ncnc3[nH]ccc23)C[C@@H](C(=O)N(C)C)C1 (racemic) [Example 94]	148 nM	0.8 nM	1080 nM
C=CC(=O)N1C[C@@H](CO)C[C@@H](Nc2ncnc3[nH]ccc23)C1 (racemic) [Example 97, racemic-1-((3R,5S)-3-((7H-pyrrolo[2,3-d]pyrimidin-4-yl)amino)-5-(hydroxymethyl)piperidin-1-yl)prop-2-en-1-one]	187 nM	1.71 nM	1060 nM
C=CC(=O)N1C[C@H](Nc2ncnc3[nH]ccc23)CC[C@@H]1[C@H](C)O (racemic) [Example 112]	181 nM	1.03 nM	1010 nM
C[C@H]1CC[C@@H](Nc2ncnc3[nH]ccc23)CN1C(=O)C1CO1 (mixture of isomers) [Example 132, Racemic-[(2S,5R)-2-methyl-5-(7H-pyrrolo[2,3-d]pyrimidin-4-ylamino)piperidin-1-yl](oxiran-2-yl)methanone]	255 nM	1.67 nM	524 nM
C=CC(=O)N1CCN(c2cnc3[nH]cc(C(=O)NC(COC)COC)c3n2)CC1(C)C (racemic) [Example 140, Racemic-2-(4-acryloyl-3,3-dimethylpiperazin-1-yl)-N-(1,3-dimethoxypropan-2-yl)-5H-pyrrolo[2,3-b]pyrazine-7-carboxamide]	384 nM	2.71 nM	1710 nM
C=CC(=O)N1CCN(c2cnc3[nH]cc(C(=O)NC(CC)COC)c3n2)CC1(C)C (racemic) [Example 141, Racemic-2-(4-acryloyl-3,3-dimethylpiperazin-1-yl)-N-(1-methoxybutan-2-yl)-5H-pyrrolo[2,3-b]pyrazine-7-carboxamide]	103 nM	0.794 nM	347 nM
C=CC(=O)N1CCC(Oc2cnc3[nH]cc(C(=O)NCC4(O)CCCC4)c3n2)CC1 (racemic) [Example 206, Racemic-2-[(1-acryloylpiperidin-4-yl)oxy]-N-[(1-hydroxycyclopentyl)methyl]-5H-pyrrolo[2,3-b]pyrazine-7-carboxamide]	325 nM	2.79 nM	3100 nM
C=CC(=O)N1CCC(Oc2cnc3[nH]cc(C(=O)NC(CC)C4(O)CCC4)c3n2)CC1 (racemic) [Example 213, Racemic-2-[(1-acryloylpiperidin-4-yl)oxy]-N-[1-(1-hydroxycyclobutyl)propyl]-5H-pyrrolo[2,3-b]pyrazine-7-carboxamide]	343 nM	3.07 nM	1720 nM
C=CC(=O)N1CCC(Oc2cnc3[nH]cc(C(=O)NCC4(O)CCCC(F)(F)C4)c3n2)CC1 (racemic) [Example 223, Racemic-2-[(1-acryloylpiperidin-4-yl)oxy]-N-[(3,3-difluoro-1-hydroxycyclohexyl)methyl]-5H-pyrrolo[2,3-b]pyrazine-7-carboxamide]	344 nM	4.13 nM	3330 nM
C=CC(=O)N1CCC(C)(Nc2cnc3[nH]cc(C(=O)NCC(C)CC(F)(F)F)c3n2)CC1 (racemic) [Example 270, Racemic-2-[(1-acryloyl-4-methylpiperidin-4-yl)amino]-N-(4,4,4-trifluoro-2-methylbutyl)-5H-pyrrolo[2,3-b]pyrazine-7-carboxamide]	63 nM	0.526 nM	670 nM
C=CC(=O)N1CCC(Nc2cnc3[nH]cc(C(=O)NCCCC(F)(F)F)c3n2)CC1C (racemic) [Example 282, Racemic-2-[(1-acryloyl-2-methylpiperidin-4-yl)amino]-N-(4,4,4-trifluorobulyl)-5H-pyrrolo[2,3-b]pyrazine-7-carboxamide]	359 nM	2.45 nM	3090 nM
C=CC(=O)N1CCC(Nc2cnc3[nH]cc(C(=O)NCC(C)CC(F)(F)F)c3n2)CC1C (racemic) [Example 310, Racemic-2-[(1-acryloyl-2-methylpiperidin-4-yl)amino]-N-(4,4,4-trifluoro-2-methylbutyl)-5H-pyrrolo[2,3-b]pyrazine-7-carboxamide]	170 nM	2.08 nM	1200 nM
C=CC(=O)N1CCC(Nc2cnc3[nH]cc(C(=O)NC4CCC4)c3n2)CC1C (racemic) [Example 320, Racemic-2-[(1-acryloyl-2-methylpiperidin-4-yl)amino]-N-cyclobutyl-5H-pyrrolo[2,3-b]pyrazine-7-carboxamide]	182 nM	2.16 nM	1250 nM
C=CC(=O)N1CC[C@H](Nc2cnc3[nH]cc(C(=O)NCC)c3n2)C[C@@H]1C (racemic) [Example 349, 2-(((2S,4S)-1-acryloyl-2-methylpiperidin-4-yl)amino)-N-ethyl-5H-pyrrolo[2,3-b]pyrazine-7-carboxamide]	367 nM	2.12 nM	2930 nM
C=CC(=O)N1CC[C@@H](Nc2cnc3[nH]cc(C(=O)NCC)c3n2)[C@H](OC)C1 (single isomer, unassigned) [Example 26]	99 nM	1.65 nM	1930 nM
